Patent publication US20050129687A1, “Use of inhibitors of PACAP receptor activity for treatment of overactive bladder and pelvic floor pain syndrome” (University of Vermont and State Agricultural College, priority 2003, published 2005)
Where no end group is shown, it is not given here.

Experiments:
[1] = test system: rat with chronic CYP-induced cystitis; assay: Conscious cystometry in rats with chronic CYP-induced cystitis; format: in vivo
Procedure: (§1) Chemical cystitis was induced in adult female Wistar rats by cyclophosphamide (CYP), which is metabolized to acrolein, an irritant eliminated in the urine. CYP (Sigma ImmunoChemicals, St. Louis, Mo.) was administered in one of the following ways: (1) 4 hr (150 mg/kg; i.p.) prior to euthanasia of the animals to elicit acute inflammation (n=6); (2) 48 hr (150 mg/kg; i.p.) prior to euthanasia to examine an intermediate inflammation (n=6) or (3) administered every third day for 10 days to elicit chronic inflammation (n=8; 75 mg/kg; i.p). All injections of CYP were performed under isoflurane (2%) anesthesia.
(§2) Rats were anesthetized with isoflurane anesthesia (2-3%) and the atlanto-occiptal membrane was exposed by aseptic surgical technique. Polyethylene tubing (PE-10, Clay Adams, Parsippany, N.J.) was inserted under the membrane and passed to the lumbosacral spinal cord (L6-S1). Correct catheter placement was confirmed at time of euthanasia. The intrathecal catheter was secured in place with a small drop of dental cement and the incision was closed in two layers. The intravesical catheter was then inserted.
(§3) A lower midline abdominal incision was performed under general anesthesia (ketamine 60 mg/kg, xylazine 10 mg/kg, i.p.), and polyethylene tubing (PE-50) with the end flared by heat was inserted into the dome of the bladder and secured in place with a 6-0 nylon purse string suture. The distal end of the tubing was sealed, tunneled subcutaneously and externalized at the back of the neck, out of the animal's reach. Abdominal and neck incisions were closed with 4-0 nylon sutures. Animals were maintained for 72 hours after survival surgery to ensure complete recovery.
(§4) Control rats and rats treated with CYP (acute; 4 hr or intermediate; 48 hr) or SCI rats and also treated with a specific PACAP antagonist, PACAP6-38 or vehicle (0.9% saline), were evaluated with cystometry. For conscious cystometry, a rat was placed unrestrained in a cage. Prior to the start of the recording, the bladder was emptied and the catheter was connected via a T-tube to a pressure transducer (Grass® Model PT300, West Warwick, R.I.) and microinjection pump (Harvard Apparatus 22, South Natick, Mass.). We infused a 0.9% saline solution at room temperature into the bladder at a rate of 10 ml/hour. Intravesical pressure was recorded continuously using a Neurodata Acquisition System (Grass® Model 15, Astro-Med, Inc, West Warwick, R.I.). At least four reproducible micturition cycles were recorded after the initial stabilization period of 25-30 minutes. The following cystometric parameters were recorded in each animal: filling pressure (pressure at the beginning of the bladder filling), threshold pressure (bladder pressure immediately prior to micturition), micturition pressure (the maximal bladder pressure during micturition), micturition interval (time between micturition events), void volume and presence or absence of non-voiding bladder contractions (NVC). For the present study, NVCs were defined as increases in bladder pressure of at least 7 cm H2O without release of urine.
The effects of a specific PAC1 receptor antagonist, PACAP6-38 (i.t. or intravesical) (Peninsula Pharmaceuticals) or vehicle (0.9% saline, i.t. or intravesical; artificial cerebrospinal fluid, aCSF, i.t.) on lower urinary tract function in rats treated with CYP (4 hr, 48 hr or chronic cystitis) were evaluated. Separate groups of rats were used to evaluate the effects of PACAP6-38 given either through the i.t. catheter or the intravesical catheter. After recording at least three reproducible micturition cycles, PACAP6-38 or saline was administered through the catheters (i.t. or intravesical) and the effects evaluated.
All values are means±S.E.M. Comparisons of urodynamic parameters between control and experimental treatments were made using the Fischer exact test. […]

[2] = test system: rat with acute (4 hr) CYP-induced cystitis; assay: Conscious cystometry in rat with acute (4 hr) CYP-induced cystitis, intravesical delivery; format: in vivo; settings: 200 nmol intravesically
Procedure: as §1, §3
Control rats and rats treated with CYP (acute; 4 hr or intermediate; 48 hr) or SCI rats and also treated with a specific PACAP antagonist, PACAP6-38 or vehicle (0.9% saline), were evaluated with cystometry. […] Intravesical pressure was recorded continuously using a Neurodata Acquisition System (Grass® Model 15, Astro-Med, Inc, West Warwick, R.I.). At least four reproducible micturition cycles were recorded after the initial stabilization period of 25-30 minutes. The following cystometric parameters were recorded in each animal: filling pressure (pressure at the beginning of the bladder filling), threshold pressure (bladder pressure immediately prior to micturition), micturition pressure (the maximal bladder pressure during micturition), micturition interval (time between micturition events), void volume and presence or absence of non-voiding bladder contractions (NVC). […]

[3] = test system: rat with chronic spinal cord injury (SCI); assay: Conscious cystometry in rats with chronic spinal cord injury (SCI); format: in vivo
Procedure: A complete spinal cord transaction was performed in adult, female rats anesthetized with isoflurane (2-3%). Animals received antibiotic and analgesic treatment following surgery. Animals were evaluated using conscious cystometry six-weeks following surgery when each animal had recovered automatic micturition. The University of Vermont IACUC approved all experimental procedures (protocol #02-108, 03-030, 03-148D) involving animal use. Animal care was under the supervision of the University of Vermont's Office of Animal Care in accordance with the Association for Assessment and Accreditation of Laboratory Animal Care and National Institutes of Health guidelines. All efforts were made to minimize animal stress/distress and suffering and to use the minimum number of animals. Currently, no alternatives exist to the use of whole, live animals in the present study.
as §2, §3, §4
All values are means±S.E.M. Comparisons of urodynamic parameters between control and experimental treatments were made using the […]. When F ratios exceeded the critical value (P≦0.05), the Dunnett's post-hoc test was used to compare the control mean with each experimental mean.

[4] = test system: tracheal muscles in cats; settings: cited from earlier work
[5] = 1 nmol intrathecally, rat with chronic CYP-induced cystitis (FIG. 1)
[6] = acute (4 hr) CYP-induced cystitis (FIG. 4)
[7] = 1 nmol intrathecally, rat with chronic SCI
[8] = 1 nmol, SCI rats compared to SCI rats treated with vehicle (aCSF) (FIG. 7)

Substance | persistence of drug effects after administration ([1]; 1 nmol intrathecally, rat with chronic CYP-induced cystitis) | appearance of non-voiding bladder contractions [1, 5] | intercontraction interval [1, 5] | intercontraction interval ([1]; rats treated chronically with CYP, 1 or 10 nmol (FIG. 3)) | Non-voiding bladder contractions per cycle (NVC/cycle) ([1]; rats treated chronically with CYP, compared to untreated rats with CYP-induced cystitis (FIG. 2)) | persistence of drug effects after administration ([2]; acute (4 hr) CYP-induced cystitis) | appearance of non-voiding bladder contractions [2, 6] | intercontraction interval [2, 6] | Non-voiding bladder contractions [3, 7] | persistence of drug effects after administration [3, 7] | micturition pressures ([3]; 1 nmol intrathecally, rat with chronic SCI (FIGS. 5 and 6)) | Intermicturition pressure [3, 8] | micturition pressure [3, 8] | threshold pressure [3, 8] | inhibitory-NANC (non-adrenergic, non-cholinergic) relaxation [4] | effect of agonist on the PACAP6-38-induced change in intercontraction interval ([1]; rats treated chronically with CYP, after PACAP6-38 treatment) | effect of intrathecal agonist on the PACAP6-38-induced reduction of pressures ([3]; SCI rats, intrathecal, after PACAP6-38 (FIG. 7))
Phe-Thr-Asp-Ser-Tyr-Ser-Arg-Tyr-Arg-Lys-Gln-Met-Ala-Val-Lys-Lys-Tyr-Leu-Ala-Ala-Val-Leu-Gly-Lys-Arg-Tyr-Lys-Gln-Arg-Val-Lys-Asn-Lys (FTDSYSRYRKQMAVKKYLAAVLGKRYKQRVKNK) [PACAP6-38] | at least 5 hours | reduced | increased | significantly lengthened | significantly reduced | at least 2 hours | reduced | increased | not eliminated by treatment but reduced in pressure | at least 5 hours | reduced | reduced | reduced | reduced | partially but significantly inhibited | – | –
Pituitary adenylate cyclase-activating polypeptide (HSDGIFTDSYSRYRKQMAVKKYLAAVLGKRYKQRVKNK; ends and bridges not checked) [PACAP, polypeptide hormone that stimulates adenylate cyclase in pituitary cells; used as agonist] | – | – | – | – | – | – | – | – | – | – | – | – | – | – | – | reversed | blocked this effect
